Assay results as given in patent US10842777B2, “Compounds and compositions that bind and stabilize transthyretin and their use for inhibiting transthyretin amyloidosis and protein-protein interactions” (The Board of Trustees of the Leland Stanford Junior …, priority 2012, dated 2020).
Entries after “also recorded” stand apart in the source; their conditions may differ. Read-outs that look alike come from different tables or passages of the source.

Columns and labels:
WT-TTR in human serum [1] = target: T1, WT-TTR in human serum (Homo sapiens, UniProt P02766); assay: Serum TTR selectivity assay (covalent probe 6 competition); type: binding; parameters: tissue Sigma-Aldrich; host or cells: human serum (A4: from human male AB plasma); conditions: 10 μM compound, 3.6 μM probe, human serum (TTR ~5 μM), after 6 hours; lower = more selective
Protocol: 98 μL of human serum (Sigma-Aldrich) was mixed with 1 μL of test compounds (1.0 mM stock solution in DMSO, final concentration: 10 μM) and 1 μL of covalent probe 6 (0.36 mM stock solution in DMSO: final concentration: 3.6 μM). The fluorescence changes (λex=328 nm and λem=384 nm) were monitored every 10 min using a microplate spectrophotometer reader (Molecular Devices SpectraMax M5) for 6 h at 25° C.
Covalent probe 6 binds selectively to TTR in serum and covalently modifies K15, creating a fluorescent conjugate. Ligands that bind with high selectivity to TTR in serum decrease covalent probe 6 binding to TTR and therefore lower the fluorescence. All test compounds (10 μM) were incubated with human serum (WT-TTR concentration ˜5 μM) in the presence of covalent probe 6 (3.6 μM) (FIG. 4).

TTR = target: T2, TTR (Homo sapiens, UniProt P02766); assay: Isothermal titration calorimetry (ITC); type: binding; conditions: for Kd: TTR 2 μM titrated with 25 μM compound, PBS pH 7.4, 25° C., two-site negative cooperativity model; for ΔG1 / ΔH1 / ΔG2 / ΔH2: ITC; for ΔG1 / ΔH1: first binding site; for ΔG2 / ΔH2: second binding site
T2 construct: purchased Sigma; host or cells: human plasma

WT-TTR in human serum [2] = target: T1, WT-TTR in human serum; assay: Serum WT-TTR tetramer stability against acid denaturation; conditions: 10 μM compound, human serum (TTR ~5 μM), pH 4.0, 72 hours
Protocol: Serum samples were incubated in acetate buffer (pH 4.0), with DMSO or 10 μM of test compound, for the desired time period (0 and 72 hours) before cross-linking, SDS-PAGE, and immunoblotting. The density of all TTR bands (TTR tetramer; arrowhead and TTR bound to RBP; solid arrow) was quantified using an Odyssey infrared imaging system (LI-COR Bioscience, Lincoln, Nebr.) and reported as % TTR tetramer=100×[(tetramer & tetramer+RBP density, 72 hrs)/(tetramer & tetramer+RBP density of DMSO, 0 hrs)].
All compounds were 10 mM stock solutions in DMSO and diluted accordingly with DMSO for different assays. 0.5 μl of each compound was added to 24.5 μl of human serum (from human male AB plasma, Sigma) to make the final concentration of 10 μM. The samples were incubated at 37° C. for 2 h, and then 10 μl of the samples were diluted 1:10 with acidification buffer (pH 4.0, 100 mM sodium acetate, 100 mM KCl, 1 mM EDTA, 1 mM DTT). […] All the samples were denatured with adding 100 μl SDS gel loading buffer and boiled for 5 min. […] The normalization was done by dividing each value of the TTR tetramer band intensity by the average of all the values at time 0.
The compounds were tested for their ability to stabilize WT-TTR in human serum (FIG. 5). […] Test compounds (10 μM) were pre-incubated with human serum (TTR ˜5 μM) and the pH was lowered to pH 4.0 to induce aggregation. Aliquots, taken at 0 and 72 hours, were treated with glutaraldehyde to cross-link TTR tetramers that remained intact in the serum sample. SDS-PAGE followed by immunoblot analysis was used to measure the amount of intact TTR tetramer after 72 hours of acid treatment in the presence and absence of test compounds.

Hep3B cells = assay: Cytotoxicity assay (MTT), Hep3B; type: cell-based, human; conditions: 1 to 100 μM, 24 h
Protocol: (§1) Cell viability results are reported relative to cells treated with vehicle only (100% cell viability).
(§2) 5×10^3 cells were seeded on 80 μl growth media (except 2.5×10^4 Jurkat cells) in each well in 96-well plates and incubate O/N at 37° C. 20 μl of fresh growth media containing each compound were added into each well to make the final concentration ranging from 1-100 μM. DMSO was used for normalization. Cell titer was tested every 24 h using CellTiter 96 non-radioactive cell proliferation assay kit (Promega, Madison, Wis.) at 560 nm absorbance.

Hela cells = assay: Cytotoxicity assay (MTT), HeLa; type: cell-based; conditions: 1 to 100 μM, 24 h
Protocol: as §1, §2

[3] = test system: Hep3B, Jurkat, MCF7 and HeLa cell lines; assay: Cytotoxicity assay (MTT), panel of four cell lines; type: cell-based; conditions: 1 to 100 μM, 24 h
Protocol: as §1, §2

[4] = target: T3, V122I-TTR in serum from FAC patients (Homo sapiens, UniProt P02766, V142I); assay: Serum V122I-TTR tetramer stability against acid denaturation; type: biochemical; conditions: 10 μM compound, pH 4.0, 72 hours
T3 construct: stabilization of V122I-TTR in serum from two FAC patients; from tissue; host or cells: serum of two FAC patients carrying V122I

[5] = human subjects, 20 mg daily dose; read-out: mean maximum concentration (Cmax) in serum; cited from earlier work
MCF7 cells = assay: Cytotoxicity assay (MTT), MCF7; type: cell-based; conditions: MCF7, 1 to 100 μM, 24 h
Protocol: as §1, §2

Row | SMILES | covalent probe 6 binding to TTR relative to probe alone (WT-TTR in human serum [1]) | Kd (TTR; read-out: Kd1) | Kd (TTR; read-out: Kd2) | TTR tetramer stabilization (% TTR tetramer) (WT-TTR in human serum [2]) | concentration at which cytotoxicity is shown (Hep3B cells) | concentration at which cytotoxicity is shown (Hela cells) | concentration at which toxicity to certain cell lines is displayed [3] | V122I-TTR tetramer stabilized [4] | ΔG1 (TTR) | ΔH1 (TTR) | ΔG2 (TTR) | ΔH2 (TTR) | cytotoxicity towards the cell lines tested [3] | Cmax [5] | concentration at which cytotoxic effects were observed (MCF7 cells)
1 | Cc1n[nH]c(C)c1CCCOc1ccccc1F [Compound A] | 59.3±8.7% | 58 nM | 500 nM | 61.7%+/−2.1 | > 25 µM | > 25 µM | > 25 µM | – | – | – | – | – | – | – | –
2 | Cc1n[nH]c(C)c1CCCOc1cc(C(=O)O)ccc1F [Compound VIIc, 3-(3-(3,5-Dimethyl-1H-pyrazol-4-yl)propoxy)-4-fluorobenzoic acid] | 3.1±2.9% | – | – | 108+/−6% | – | – | – | ~100% | ~−11.4 | -13.6 kcal/mol | ~−8.8 | -7.5 kcal/mol | not toxic; also recorded: no cytotoxic effects | – | –
3 | O=C(O)c1ccc2nc(-c3cc(Cl)cc(Cl)c3)oc2c1 [tafamidis] | – | – | – | about 58%+/−3 | – | – | – | – | ~−11.4 | -5.0 kcal/mol | ~−8.8 | -3.9 kcal/mol | – | ~7.4 µM | > 50 µM
